Test system: HEK293T cells
Assay: Metabolic conversion and uptake of 2-hydroxylated fatty acids in HEK293T cell cultures
Assay type: in vitro ADME, human
Procedure: To describe the metabolic conversion of DHA-H to HPA(C21:5 ω-3), as well as the conversion of LA-H to HDA (C17:2 ω-6), ALA-H to HTA ω-3 (C17:3 ω-3), GLA-H to HTA ω-6 (C17:3 ω-6), ARA-H to NTA (C19:4 ω-6), EPA-H to NPA (C19:5 ω-3), HEK293T (Human Embryonic Kidney Cells 293T) cell cultures were employed, which is an embryonic, non-tumoral cell line, widely used in human metabolism studies under physiological conditions.
HEK293T cells were cultured in Dulbecco's Modified Eagle's Medium (DMEM; Dubelcco's Modified Eagle's Medium, Biowest, France), supplemented with 10% FBS (Fetal Bovine Serum; Gibco, Thermo-Fisher), 2 mM L-Gln, 25 mM D(+)-glucose, 1 mM sodium pyruvate, and penicillin/streptomycin. Mouse neuroblastoma N2a cells were maintained in a 1:1 (v:v) mixture of DMEM and Opti-Mem (Gibco, Thermo-Fisher), supplemented with 5% FBS and penicillin/streptomycin. Both cell lines were incubated in an atmosphere of 5% CO2 at 37° C.
HEK293T cells were incubated with DHA-H and DHA at 10, 30 and 100 μM for 24 hours, and at 30 μM for 6, 48 and 72 hours. These cells were also incubated with LA-H, ALA-H, GLA-H, ARA-H and EPA-H at 100 μM for 24 hours. HEK293T cells were also incubated with oxythiamine in the presence of DHA-H under the same conditions, at final oxythiamine concentrations of 1 and 10 mM. The HEK293T cells were separated from the plates by pipettes with cold phosphate buffer saline solution (PBS). Cells were recovered by centrifugation (1000 xg, 10 min at 4° C.) and washed twice with cold PBS before being frozen at −80° C. To analyze DHA-H and DHA levels in the cell culture medium, 90 mm diameter plates were filled with 11 mL of complete cell culture medium containing 30 μM DHA-H or DHA in the presence or absence of attached HEK293T cells (5.10^5 cells/plate). The plates were incubated as described above and 1 ml aliquots of the plates were collected at 0, 6, 24, 48 and 72 hours. Aliquots of the cell culture medium were immediately centrifuged at 1000×g for 10 min at 4° C. to remove any cell suspension and the cell-free aliquots were stored at -20° C.
The cell lysates were subjected to ultrasound pulses (4 cycles, 10 s/cycle, 10 W) before lipid extraction. For brain analysis, the tissue of each animal was homogenized in cold PBS at 1:10 (p:v) in the presence of protease inhibitors (Roche), using a blade homogenizer (Polytron PT3100). Homogenates were ultrasounded, aliquots were made and stored at −80 ° C. Only one aliquot of each sample, containing about 8 mg protein/aliquot, was subjected to lipid extraction. Protein content before lipid extraction was determined by a modified Lowry method (Bio-rad DC Protein Assay).
Margaric acid (C17:0) was added to the samples subjected to lipid extraction as an internal standard and the lipids were extracted with chloroform:methanol (Eggers and Schwudke, 2016). Briefly, 0.75 volumes of the aqueous phase (which already contained the biological sample) were mixed with 2 volumes of chloroform and 1 volume of methanol. This mixture was vortexed for 1 minute and centrifuged at 1000×g for 10 minutes. The lower organic phase was collected and washed with 1 ml of PBS:methanol (1:1,v:v), and the resulting organic phase was dried under argon flow. The film containing the extracted lipids was transmethylated by incubation of the lipid mixture for 90 minutes at 100° C. in 3 ml of methanol:acetyl chloride (10:1, v:v), under an argon atmosphere (Christie, 1993). The resulting fatty acid methyl esters (FAMEs) were extracted with hexane, adding 3 ml of H2O and 1 ml of hexane to the transmethylation reaction, and vortexing the mixture thoroughly. After centrifugation at room temperature (1000×g for 10 min), the upper phase containing the FAMEs was collected and the remaining volume was washed twice with 1 ml of hexane.

| Levels in the culture medium in the absence of cell culture (30 μM, up to 72 h, no cells) | Formation of the metabolite from its 2-hydroxylated prodrug in the presence of oxythiamine (HEK293T, prodrug 100 μM, 24 h, 10 mM oxythiamine) | Compound | Intracellular HPA levels compared to DHA-H levels (HEK293T under DHA-H, from 24 hours of incubation and 30 μM) |
| --- | --- | --- | --- |
| remained constant over time |  | CCC=CCC=CCC=CCC=CCC=CCC=CCC(O)C(=O)O (stereo not drawn) [DHA-H, 2-hydroxy-drocosahexaenoic acid] |  |
|  | inhibited | CC/C=C\C/C=C\C/C=C\C/C=C\C/C=C\CCCCC(=O)O [HPA, (6Z,9Z,12Z,15Z,18Z)-heneicosa-6,9,12,15,18-pentaenoic acid] | significantly higher than those of the prodrug |
